The values that follow come from patent publication US9937259B2, “Abiraterone derivatives and non-covalent complexes with albumin” (Zhuhai Beihai Biotech Co., Ltd., priority 2014, dated 2018).

A short description of series [1]: Persistence in plasma (incubation at 37° C., LC-MS/MS). The class given is in vitro ADME, human. The settings on record: for Peak Area Ratio (Analyte/IS): Human Plasma. As for the experimental part:
Test compounds and control (procaine) were incubated at a concentration of 10 μM with human plasma. […]
After quenching by acetonitrile, the plates were capped, vortexed, and centrifuged at 3000 rpm for 10 minutes. The supernatant was injected into LC-MS/MS.

Series [2] in a line: Persistence in plasma study, PBS buffer incubation. The class given is physicochemical. The note with it: for Peak Area Ratio (Analyte/IS): PBS Buffer (pH 7.4), 37° C.; for % Remaining after 24-hr Incubation at 37° C.: PBS buffer.
The conditions of series [3]: product insert; cited from earlier work.
For series [4] the following is noted: oral drug, poor absorption; cited from earlier work.
For series [5] the following is noted: depending on fat content of the meal; cited from earlier work.
The target of series [6] is CYP3A4 liver enzyme (Homo sapiens, UniProt P08684). The note with it: cited from earlier work.
CYP3A4 liver enzyme, sequence (P08684 whole entry): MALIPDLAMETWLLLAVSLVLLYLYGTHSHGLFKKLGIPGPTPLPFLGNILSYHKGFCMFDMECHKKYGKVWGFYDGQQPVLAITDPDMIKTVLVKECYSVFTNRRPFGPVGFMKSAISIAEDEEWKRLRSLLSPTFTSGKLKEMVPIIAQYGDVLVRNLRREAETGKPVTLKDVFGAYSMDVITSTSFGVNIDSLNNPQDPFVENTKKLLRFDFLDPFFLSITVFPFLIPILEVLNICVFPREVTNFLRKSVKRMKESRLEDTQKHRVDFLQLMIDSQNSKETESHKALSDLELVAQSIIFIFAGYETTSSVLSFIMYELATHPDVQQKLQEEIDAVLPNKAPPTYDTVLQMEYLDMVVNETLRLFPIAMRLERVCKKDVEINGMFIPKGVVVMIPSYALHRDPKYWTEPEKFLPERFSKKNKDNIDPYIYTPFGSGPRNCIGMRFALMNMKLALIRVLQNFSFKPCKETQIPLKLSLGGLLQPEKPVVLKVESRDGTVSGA

The structures appear in SMILES notation.

`CCN(CC)CCOC(=O)c1ccc(N)cc1` [Procaine]: the “Peak Area Ratio (Analyte/IS)” value in series [1] (0 hr, Replicate 1) turned out to be 0.443; in series [1] (0 hr, Replicate 2) it was 0.444; in series [1] (24 hr, 37° C., Replicate 1), 0.0; in series [1] (24 hr, 37° C., Replicate 2) it was 0.0; in series [2] (Replicate 1) it was 0.0916; in series [2] (Replicate 2) it was 0.357. Further, the “% Remaining after 24-hr Incubation at 37° C.” value was 0.0% in series [1] (human, plasma, 24 h, 10 μM); 51% in series [2] (Average); 20.65% in series [2] (Replicate 1); 80.5% in series [2] (Replicate 2).
In the case of `CC(=O)O[C@H]1CC[C@@]2(C)C(=CC[C@@H]3[C@@H]2CC[C@]2(C)C(c4cccnc4)=CC[C@@H]32)C1` [abiraterone acetate], in series [3], the Solubility in water result is reported as “practically insoluble”. Moreover, the Administered drug excreted in series [4] is given as 77%. For the same compound, the Food-effect entry in series [5] is “five- to ten-fold”. In series [6], the “Substrate of CYP3A4” value was “substrate”.
